Reference: the kinase profiling compilation of Christmann-Franck et al. (2016)

What was measured:
Experiment in all cases: SelectScreen, TR FRET
[1] = molecular target: PRKAA1 PRKAB1 PRKAG1 (human) (UniProt P54619+Q13131+Q9Y478); settings: compound 0.1 µM
PRKCI (human) = PRKCI (human) (UniProt P41743)
MAPK8 (human) = MAPK8 (human) (UniProt P45983)
KDR (human) = KDR (human) (UniProt P35968)
PRKG2 (human) = PRKG2 (human) (UniProt Q13237)
MAPK9 (human) = MAPK9 (human) (UniProt P45984)
JAK1 JH1 JH2 (human) = JAK1 JH1 JH2 (human) (UniProt P23458)
PDPK1 (human) = PDPK1 (human) (UniProt O15530)
MAP3K8 (human) = MAP3K8 (human) (UniProt P41279)
MAP3K8 (human), sequence (P41279 whole entry, looked up): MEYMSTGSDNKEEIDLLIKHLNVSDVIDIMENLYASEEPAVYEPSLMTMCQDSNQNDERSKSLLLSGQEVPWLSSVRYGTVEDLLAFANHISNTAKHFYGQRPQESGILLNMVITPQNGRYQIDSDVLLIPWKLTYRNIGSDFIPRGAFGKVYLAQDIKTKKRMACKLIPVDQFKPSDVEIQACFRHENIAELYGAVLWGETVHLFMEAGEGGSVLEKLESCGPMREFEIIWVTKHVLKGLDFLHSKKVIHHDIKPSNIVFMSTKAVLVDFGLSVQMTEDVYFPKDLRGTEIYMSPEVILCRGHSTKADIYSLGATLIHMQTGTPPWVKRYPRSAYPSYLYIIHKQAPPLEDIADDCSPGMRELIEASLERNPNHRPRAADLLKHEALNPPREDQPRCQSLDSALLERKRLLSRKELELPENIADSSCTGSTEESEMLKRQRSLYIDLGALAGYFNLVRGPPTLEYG

IRAK4 (human) = IRAK4 (human) (UniProt Q9NWZ3)
MST4 (human) = MST4 (human) (UniProt Q9P289)
PRKCZ (human) = PRKCZ (human) (UniProt Q05513)
CSF1R (human) = CSF1R (human) (UniProt P07333)
PRKACA (human) = PRKACA (human) (UniProt P17612)
INSR (human) = INSR (human) (UniProt P06213)
CSNK2A1 (human) = CSNK2A1 (human) (UniProt P68400)
PTK6 (human) = PTK6 (human) (UniProt Q13882)
PTK6 (human), sequence (Q13882 whole entry, looked up): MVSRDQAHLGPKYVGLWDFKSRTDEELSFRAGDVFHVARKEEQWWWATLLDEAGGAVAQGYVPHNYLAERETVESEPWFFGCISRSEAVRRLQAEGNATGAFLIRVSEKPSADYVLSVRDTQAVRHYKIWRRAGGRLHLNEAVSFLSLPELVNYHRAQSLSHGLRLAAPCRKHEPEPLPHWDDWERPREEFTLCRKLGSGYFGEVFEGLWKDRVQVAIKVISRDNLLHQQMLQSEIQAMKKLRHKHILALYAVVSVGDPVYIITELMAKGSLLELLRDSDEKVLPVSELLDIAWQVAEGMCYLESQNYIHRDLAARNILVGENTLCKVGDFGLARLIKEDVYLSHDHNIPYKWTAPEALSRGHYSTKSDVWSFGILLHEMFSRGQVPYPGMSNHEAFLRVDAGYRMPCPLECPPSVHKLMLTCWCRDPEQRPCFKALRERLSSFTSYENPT

RPS6KA3 KD1 KD2 (human) = RPS6KA3 KD1 KD2 (human) (UniProt P51812)
CAMK4 (human) = CAMK4 (human) (UniProt Q16566)
KIT (human) = KIT (human) (UniProt P10721)
PIM1 (human) = PIM1 (human) (UniProt P11309)
TEK (human) = TEK (human) (UniProt Q02763)
TEK (human), sequence (Q02763 whole entry, looked up): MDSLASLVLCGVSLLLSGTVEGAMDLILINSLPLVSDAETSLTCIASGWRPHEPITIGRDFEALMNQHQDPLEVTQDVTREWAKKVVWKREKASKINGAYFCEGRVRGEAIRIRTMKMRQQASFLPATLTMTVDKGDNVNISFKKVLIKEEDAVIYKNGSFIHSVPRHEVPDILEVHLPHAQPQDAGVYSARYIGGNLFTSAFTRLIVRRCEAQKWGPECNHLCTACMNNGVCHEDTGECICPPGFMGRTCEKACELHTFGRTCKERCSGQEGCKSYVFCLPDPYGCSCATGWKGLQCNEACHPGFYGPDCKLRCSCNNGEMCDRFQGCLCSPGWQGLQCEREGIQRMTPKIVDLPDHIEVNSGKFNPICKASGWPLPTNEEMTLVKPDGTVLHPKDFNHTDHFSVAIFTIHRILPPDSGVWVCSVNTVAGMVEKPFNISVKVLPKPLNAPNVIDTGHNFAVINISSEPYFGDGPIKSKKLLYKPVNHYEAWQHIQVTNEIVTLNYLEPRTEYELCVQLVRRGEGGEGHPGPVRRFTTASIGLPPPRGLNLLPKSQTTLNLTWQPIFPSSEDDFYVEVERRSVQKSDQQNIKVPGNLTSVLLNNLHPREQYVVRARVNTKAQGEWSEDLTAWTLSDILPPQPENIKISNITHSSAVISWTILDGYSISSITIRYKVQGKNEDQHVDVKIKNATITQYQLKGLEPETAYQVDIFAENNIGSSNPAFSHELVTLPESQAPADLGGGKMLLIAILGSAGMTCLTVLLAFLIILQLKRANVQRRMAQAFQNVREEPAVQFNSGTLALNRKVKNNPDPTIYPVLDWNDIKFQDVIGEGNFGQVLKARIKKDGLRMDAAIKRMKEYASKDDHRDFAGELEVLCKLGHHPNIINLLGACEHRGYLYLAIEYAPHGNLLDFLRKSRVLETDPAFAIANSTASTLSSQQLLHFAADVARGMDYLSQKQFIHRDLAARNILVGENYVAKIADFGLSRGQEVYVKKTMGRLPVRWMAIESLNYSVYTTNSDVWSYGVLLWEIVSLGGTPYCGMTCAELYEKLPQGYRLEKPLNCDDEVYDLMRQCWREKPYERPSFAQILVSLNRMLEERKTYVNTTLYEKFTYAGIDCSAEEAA

BMX (human) = BMX (human) (UniProt P51813)
BMX (human), sequence (P51813 whole entry, looked up): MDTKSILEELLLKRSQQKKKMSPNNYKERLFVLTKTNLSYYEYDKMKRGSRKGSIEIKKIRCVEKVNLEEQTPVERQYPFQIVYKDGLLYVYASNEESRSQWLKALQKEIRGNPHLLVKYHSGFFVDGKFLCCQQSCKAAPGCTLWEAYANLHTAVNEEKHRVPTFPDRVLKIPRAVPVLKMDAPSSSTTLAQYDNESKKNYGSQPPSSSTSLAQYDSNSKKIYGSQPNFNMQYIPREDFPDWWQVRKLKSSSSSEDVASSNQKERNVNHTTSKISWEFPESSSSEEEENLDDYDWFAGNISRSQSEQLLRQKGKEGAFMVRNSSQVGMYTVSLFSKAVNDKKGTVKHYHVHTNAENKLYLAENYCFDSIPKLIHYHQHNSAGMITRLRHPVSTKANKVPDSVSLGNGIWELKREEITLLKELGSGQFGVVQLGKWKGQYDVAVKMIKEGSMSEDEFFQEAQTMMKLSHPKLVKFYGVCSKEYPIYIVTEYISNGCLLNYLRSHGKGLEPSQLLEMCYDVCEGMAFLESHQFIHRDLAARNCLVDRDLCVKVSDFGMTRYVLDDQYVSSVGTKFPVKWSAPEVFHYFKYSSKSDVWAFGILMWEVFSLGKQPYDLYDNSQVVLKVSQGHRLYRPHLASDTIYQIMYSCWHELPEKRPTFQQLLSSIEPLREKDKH

ROCK1 (human) = ROCK1 (human) (UniProt Q13464)
HCK (human) = HCK (human) (UniProt P08631)
HCK (human), sequence (P08631 whole entry, looked up): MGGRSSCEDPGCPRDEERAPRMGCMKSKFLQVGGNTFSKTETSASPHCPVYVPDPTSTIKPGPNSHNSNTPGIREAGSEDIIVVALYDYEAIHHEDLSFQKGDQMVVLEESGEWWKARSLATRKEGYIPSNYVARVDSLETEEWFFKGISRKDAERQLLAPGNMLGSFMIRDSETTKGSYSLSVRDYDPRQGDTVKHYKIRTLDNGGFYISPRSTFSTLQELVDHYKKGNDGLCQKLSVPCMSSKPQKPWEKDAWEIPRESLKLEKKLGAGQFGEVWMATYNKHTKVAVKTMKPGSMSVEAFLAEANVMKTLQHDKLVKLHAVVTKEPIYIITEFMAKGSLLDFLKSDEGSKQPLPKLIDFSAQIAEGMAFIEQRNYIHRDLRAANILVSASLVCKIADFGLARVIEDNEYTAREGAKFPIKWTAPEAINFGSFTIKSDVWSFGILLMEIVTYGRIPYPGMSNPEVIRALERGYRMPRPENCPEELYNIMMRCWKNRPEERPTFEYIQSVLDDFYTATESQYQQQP

PKN1 (human) = PKN1 (human) (UniProt Q16512)
NTRK3 (human) = NTRK3 (human) (UniProt Q16288)
LCK (human) = LCK (human) (UniProt P06239)

MAPK9 (human), sequence (P45984 whole entry, looked up): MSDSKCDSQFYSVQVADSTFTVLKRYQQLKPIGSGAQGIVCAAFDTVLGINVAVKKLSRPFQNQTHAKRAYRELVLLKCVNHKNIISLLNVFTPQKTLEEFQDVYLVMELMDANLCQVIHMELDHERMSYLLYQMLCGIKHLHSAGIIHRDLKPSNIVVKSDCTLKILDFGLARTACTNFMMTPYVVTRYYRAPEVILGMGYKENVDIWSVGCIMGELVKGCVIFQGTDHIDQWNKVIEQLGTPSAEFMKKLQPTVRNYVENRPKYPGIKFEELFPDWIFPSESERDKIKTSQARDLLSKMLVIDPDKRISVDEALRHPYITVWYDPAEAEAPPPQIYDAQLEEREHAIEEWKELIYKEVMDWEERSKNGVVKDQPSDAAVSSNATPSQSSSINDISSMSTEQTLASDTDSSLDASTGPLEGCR
KDR (human), sequence (P35968 whole entry, looked up): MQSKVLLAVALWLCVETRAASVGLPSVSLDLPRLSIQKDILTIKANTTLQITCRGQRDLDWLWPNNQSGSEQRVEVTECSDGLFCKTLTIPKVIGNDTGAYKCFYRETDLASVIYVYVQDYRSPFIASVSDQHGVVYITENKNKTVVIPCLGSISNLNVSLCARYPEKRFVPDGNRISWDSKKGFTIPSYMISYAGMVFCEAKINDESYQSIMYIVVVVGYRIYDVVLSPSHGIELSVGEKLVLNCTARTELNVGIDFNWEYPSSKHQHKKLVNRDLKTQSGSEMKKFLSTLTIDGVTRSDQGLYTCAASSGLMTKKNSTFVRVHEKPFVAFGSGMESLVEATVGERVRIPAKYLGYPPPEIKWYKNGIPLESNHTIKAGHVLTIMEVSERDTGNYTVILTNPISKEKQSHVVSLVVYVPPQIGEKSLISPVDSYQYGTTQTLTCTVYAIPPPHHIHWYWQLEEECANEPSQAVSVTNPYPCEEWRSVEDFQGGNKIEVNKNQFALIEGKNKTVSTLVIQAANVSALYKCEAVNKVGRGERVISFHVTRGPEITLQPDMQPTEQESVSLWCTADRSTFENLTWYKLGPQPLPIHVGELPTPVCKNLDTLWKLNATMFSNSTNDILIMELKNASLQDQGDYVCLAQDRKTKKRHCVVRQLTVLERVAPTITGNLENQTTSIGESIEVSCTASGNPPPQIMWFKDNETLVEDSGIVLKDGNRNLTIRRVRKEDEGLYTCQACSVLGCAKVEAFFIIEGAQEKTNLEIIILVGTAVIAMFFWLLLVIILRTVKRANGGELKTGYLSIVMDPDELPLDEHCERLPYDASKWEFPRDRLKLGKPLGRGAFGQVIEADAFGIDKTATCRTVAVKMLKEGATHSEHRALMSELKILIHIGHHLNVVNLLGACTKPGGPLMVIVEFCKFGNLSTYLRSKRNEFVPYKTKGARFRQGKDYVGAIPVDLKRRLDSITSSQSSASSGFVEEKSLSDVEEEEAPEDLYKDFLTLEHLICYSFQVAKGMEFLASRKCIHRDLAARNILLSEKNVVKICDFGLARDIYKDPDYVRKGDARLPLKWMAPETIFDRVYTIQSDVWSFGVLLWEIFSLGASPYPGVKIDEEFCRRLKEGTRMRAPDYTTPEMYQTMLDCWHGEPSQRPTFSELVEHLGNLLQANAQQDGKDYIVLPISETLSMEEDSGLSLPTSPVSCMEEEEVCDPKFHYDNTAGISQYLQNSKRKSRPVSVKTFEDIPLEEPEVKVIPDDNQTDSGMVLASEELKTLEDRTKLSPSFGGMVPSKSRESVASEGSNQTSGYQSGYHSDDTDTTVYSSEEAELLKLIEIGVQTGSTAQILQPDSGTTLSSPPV

inhibition [1]: 2.1% | inhibition (PRKCI (human); compound 0.1 µM): 10.5% | inhibition (PRKCI (human); compound 1.0 µM): 10.2% | inhibition (PRKCI (human); compound 10.0 µM): 8.8% | inhibition (MAPK8 (human); compound 0.1 µM): 2.8% | inhibition (MAPK8 (human); compound 1.0 µM): 0.1% | inhibition (MAPK8 (human); compound 10.0 µM): 6.2% | inhibition (KDR (human); compound 0.1 µM): 20% | inhibition (KDR (human); compound 1.0 µM): 54.7% | inhibition (KDR (human); compound 10.0 µM): 93.9% | inhibition (PRKG2 (human); compound 0.1 µM): 12.8% | inhibition (PRKG2 (human); compound 1.0 µM): 14.8% | inhibition (PRKG2 (human); compound 10.0 µM): 53.5% | inhibition (MAPK9 (human); compound 0.1 µM): -1.5% | inhibition (MAPK9 (human); compound 1.0 µM): 3.7% | inhibition (MAPK9 (human); compound 10.0 µM): 10.8% | inhibition (JAK1 JH1 JH2 (human); compound 0.1 µM): 7.6% | inhibition (JAK1 JH1 JH2 (human); compound 1.0 µM): 12.3% | inhibition (JAK1 JH1 JH2 (human); compound 10.0 µM): 9.4% | inhibition (PDPK1 (human); compound 0.1 µM): 3.3% | inhibition (PDPK1 (human); compound 1.0 µM): 9.3% | inhibition (PDPK1 (human); compound 10.0 µM): 25.4% | inhibition (MAP3K8 (human); compound 0.1 µM): 28% | inhibition (MAP3K8 (human); compound 1.0 µM): 23.4% | inhibition (MAP3K8 (human); compound 10.0 µM): 12.9% | inhibition (IRAK4 (human); compound 0.1 µM): 19.8% | inhibition (IRAK4 (human); compound 1.0 µM): 25.5% | inhibition (IRAK4 (human); compound 10.0 µM): 59% | inhibition (MST4 (human); compound 0.1 µM): 6.9% | inhibition (MST4 (human); compound 1.0 µM): 2.2% | inhibition (MST4 (human); compound 10.0 µM): -39.8% | inhibition (PRKCZ (human); compound 0.1 µM): 9.2% | inhibition (PRKCZ (human); compound 1.0 µM): 9.9% | inhibition (PRKCZ (human); compound 10.0 µM): 6.9% | inhibition (CSF1R (human); compound 0.1 µM): 15.7% | inhibition (CSF1R (human); compound 1.0 µM): 25.8% | inhibition (CSF1R (human); compound 10.0 µM): 58.3% | inhibition (PRKACA (human); compound 0.1 µM): 6.3% | inhibition (PRKACA (human); compound 1.0 µM): 7.7% | inhibition (PRKACA (human); compound 10.0 µM): 9.5% | inhibition (INSR (human); compound 0.1 µM): 9.9% | inhibition (INSR (human); compound 1.0 µM): 7.3% | inhibition (INSR (human); compound 10.0 µM): 0.6% | inhibition (CSNK2A1 (human); compound 0.1 µM): 8.2% | inhibition (CSNK2A1 (human); compound 1.0 µM): 9.2% | inhibition (CSNK2A1 (human); compound 10.0 µM): 10.2% | inhibition (PTK6 (human); compound 0.1 µM): 9.2% | inhibition (PTK6 (human); compound 1.0 µM): 12.5% | inhibition (PTK6 (human); compound 10.0 µM): 39.1% | inhibition (RPS6KA3 KD1 KD2 (human); compound 0.1 µM): 6.4% | inhibition (RPS6KA3 KD1 KD2 (human); compound 1.0 µM): 7.8% | inhibition (RPS6KA3 KD1 KD2 (human); compound 10.0 µM): 18.9% | inhibition (CAMK4 (human); compound 0.1 µM): 13.6% | inhibition (CAMK4 (human); compound 1.0 µM): 10.4% | inhibition (CAMK4 (human); compound 10.0 µM): 0.8% | inhibition (KIT (human); compound 0.1 µM): 9.7% | inhibition (KIT (human); compound 1.0 µM): 13.2% | inhibition (KIT (human); compound 10.0 µM): 48.1% | inhibition (PIM1 (human); compound 0.1 µM): 6% | inhibition (PIM1 (human); compound 1.0 µM): 5.4% | inhibition (PIM1 (human); compound 10.0 µM): 23.6% | inhibition (TEK (human); compound 0.1 µM): -0.9% | inhibition (TEK (human); compound 1.0 µM): 4.6% | inhibition (TEK (human); compound 10.0 µM): 45.3% | inhibition (BMX (human); compound 0.1 µM): 7.2% | inhibition (BMX (human); compound 1.0 µM): 7.7% | inhibition (BMX (human); compound 10.0 µM): -77.3% | inhibition (ROCK1 (human); compound 0.1 µM): 0% | inhibition (ROCK1 (human); compound 1.0 µM): 2.5% | inhibition (ROCK1 (human); compound 10.0 µM): 10.9% | inhibition (HCK (human); compound 0.1 µM): 16.7% | inhibition (HCK (human); compound 1.0 µM): 19.1% | inhibition (HCK (human); compound 10.0 µM): 51.8% | inhibition (PKN1 (human); compound 0.1 µM): 12.2% | inhibition (PKN1 (human); compound 1.0 µM): 13.6% | inhibition (PKN1 (human); compound 10.0 µM): -14.2% | inhibition (NTRK3 (human); compound 0.1 µM): 18.8% | inhibition (NTRK3 (human); compound 1.0 µM): 34.5% | inhibition (NTRK3 (human); compound 10.0 µM): 77.1% | inhibition (LCK (human); compound 0.1 µM): 27.2% | inhibition (LCK (human); compound 1.0 µM): 37.9% | inhibition (LCK (human); compound 10.0 µM): 77.3%
Structure (SMILES): Cn1cc(-c2cnc3ccc4ccc(CC(=O)NCc5ccccn5)cc4c(=O)c3c2)cn1
